The target in one experiment is T1, RARα receptors (Homo sapiens, UniProt P10276).
T1 sequence (P10276 183-417 limits assumed): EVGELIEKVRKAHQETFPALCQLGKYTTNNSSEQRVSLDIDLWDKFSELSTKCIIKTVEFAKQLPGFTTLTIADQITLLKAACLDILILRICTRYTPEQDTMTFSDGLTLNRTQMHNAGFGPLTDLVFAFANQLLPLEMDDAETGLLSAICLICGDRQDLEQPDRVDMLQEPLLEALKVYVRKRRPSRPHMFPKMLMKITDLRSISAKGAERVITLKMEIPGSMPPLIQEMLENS
The experiment in a line: chimeric receptor transactivation assay, RARα. In kind it is cell-based. From the text:
For example, a chimeric receptor transactivation assay which tests for agonist-like activity in the RARα, RARβ, RARγ, RXRα receptor subtypes, and which is based on work published by Feigner P. L. and Holm M. (1989) Focus, 112 is described in detail in U.S. Pat. No. 5,455,265. The specification of U.S. Pat. No. 5,455,265 is hereby expressly incorporated by reference.
The results obtained in this assay are expressed in EC50 numbers, as they are also in the chimeric receptor transactivation assay.

A further experiment deals with T47-D cells. The experiment in a line: cell proliferation assay (BrdU incorporation), T47-D. Type of experiment: cell-based, human. The procedure:
The SKBR-3 and T47-D cell cultures in which the assay procedures were performed are also well known and are available from sources well known in the art. Specifically, as is known, T-47D is an estrogen receptor positive (ER^+) human breast cancer cell line, and SK-BR-3 is an estrogen receptor negative (ER^−) human breast cancer cell line. The assay procedure which itself is well known in the art, involves determining incorporation of 5-bromo-2′-deoxyuridine (BrdU) into the cells. As is known, incorporation of less BrdU represents less cell proliferation (inhibition of cell proliferation), and this assay is accepted in the art as a measure of anti-proliferative or anti-tumor activity of the assayed agent or agents.
The estrogen receptor-positive (ER^+) cell line T-47D and the ER^−-cell line SK-BR-3 were cultured in Dulbecco's modification of Eagle's medium (DMEM Gibco BRL, Gaithersburg, Md.) supplemented with 10% fetal bovine serum (HyClone, Logan, Utah), 2 mM L-glutamine and 1% antibiotics-antimycotics (Gibco BRL). Cell lines were obtained from the American Type Culture Collection (ATCC, Rockville, Md., HTB-133 and HTB-30 for T47-D and SKBR-3, respectively). Cells were cultured at 37° C. in a humidified atmosphere containing 5% CO2.
Proliferation of cancer cell lines was determined using a commercial cell proliferation kit (Roche Diagnostics), essentially following the instructions of the manufacturer. Cells were seeded into 96-well tissue culture plates (Corning Incorporated, Corning, N.Y.) at a concentration of 3000 cells/well. After 24 hours, cells were treated with Compound 2 (AGN195183) and/or interferons (IFNs) or solvent alone. The appropriate concentrations of Compound 2 (AGN195183) used in this study were between 10^−11M and 10^−6M; IFNs concentrations were between 25 and 1000 Unit/ml. Culture media were changed every 72 hours. After 7days, 10 μl of 5-bromo-2′-deoxyuridine (BrdU) was added to each well. Incubation with BrdU was stopped 24 hours later by adding 100 μl of anti-BrdU antibody to each well. The amount of BrdU incorporated into the DNA of proliferating cells was assessed by measuring absorbance at 450 nm. Each experiment was performed in triplicate.
The growth inhibition observed in the cell cultures as a result of treatment with a combination of Compound 2 (AGN195183) of the invention and the interferons (IFNs) was analyzed for synergistic and additive effects.
Synergism was defined as: %A×% B>%AB
Additivity was defined as: %A×%B=%AB
where A and B are the effects of each individual agent and AB is the effect of the combination, in accordance with the teaching of Aapro et al., Cancer Chemother. Pharmacol., 10: 161 -166, 1983, and Marth et al., J. Natl. Cancer Inst., 77:1197-1202, 1986), both of which are expressly incorporated herein by reference.
Referring now to the graphs of FIGS. 1 through 12, each of these represents the results obtained in the above described assays where SKBR-3 and T47-D cells, respectively, were treated with a combination of Compound 2 of the invention and human recombinant interferon (IFN) α, β, and γ, respectively. The graph of FIG. 13 illustrates the results of treatment of these two cell cultures only with Compound 2 of the invention, without the use of any other anti-tumor agent. In each of these graphs the incorporation of 5-bromo-2′-deoxyuridine (BrdU) is plotted on the Y (vertical) axis and varying concentration of Compound 2 of the invention or varying concentration of IFNα. IFNβ or of IFNγ, respectively is plotted on the X (horizontal) axis. The concentration of the interferons is expressed in international units, as is accepted in the art, whereas the molar concentration of Compound 2 is plotted on a logarithmic scale. […]
Background: Uptake of a labelled nucleoside into DNA is a usual measure of proliferation.

This note sets out measurements from patent publication US6387950B2, “Treatment of tumors with RARα selective retinoid compounds in combination with other anti-tumor agents” (Allergan Sales, Inc., priority 2000, dated 2002).

What is called pEC50 is the EC50 on a negative log10 scale, so that one unit is a factor of ten. A higher pEC50 goes with a low EC50.

pEC50: −log10 of the molar value.

For the compound `CC1(C)CCC(C)(C)c2c1cc(C(=O)Nc1cc(F)c(C(=O)O)c(F)c1)c(O)c2Cl` [Compound 2, 2,6-Difluoro-4-[(3-hydroxy-4-chloro-5,5,8 8-tetramethyl-5,6,7,8-tetrahydronaphthalene-2-carbonyl) -amino]-benzoic acid], at RARα receptors, the pEC50 was 6.74. In addition, on RARα receptors, the efficiency is given as 75%. The “anti-proliferative effect of the combination (BrdU incorporation)” value in the experiment on T47-D cells (Compound 2 100 nM, IFNα varied, FIG. 7) was “additive”; in the experiment on T47-D cells (Compound 2 100 nM, IFNβ varied, FIG. 8), “significantly synergistic”; in the experiment with T47-D cells (Compound 2 100 nM, IFNβ varied, FIG. 8, listed as AGN 195183) it was “synergism”; in the experiment on T47-D cells (Compound 2 100 nM, IFNγ varied, FIG. 9) it was “significantly synergistic”; in the experiment on T47-D cells (Compound 2 100 nM, IFNγ varied, FIG. 9, listed as AGN 195183), “synergism”; in the experiment with T47-D cells (IFNα 100 U/ml, Compound 2 varied, FIG. 10) it was “not very effective and merely additive”. Also, the “anti-proliferative effect of the combination (BrdU incorporation)” value was “synergistic inhibition” with T47-D cells (IFNβ 100 U/ml, Compound 2 varied, FIG. 11); “synergism” in the experiment on T47-D cells (IFNβ 100 U/ml, Compound 2 varied, FIG. 11, listed as AGN 195183); “synergistic inhibition was observed, in the cotreatment with IFNγ only at higher concentrations of Compound 2” in the experiment on T47-D cells (IFNγ 100 U/ml, Compound 2 varied, FIG. 12); “synergism” in the experiment on T47-D cells (IFNγ 100 U/ml, Compound 2 varied, FIG. 12, listed as AGN 195183).
